Laboratory results published in US20040170622A1, “Methods and compositions for modulating XBP-1 activity” (President and Fellows of Harvard College, priority 2002, published 2004).
“Also recorded” adds a separate entry of the source. Where a SMILES comes first, the peptide text is derived from it. The star is where a group is joined. Cbz = O=C(OCc1ccccc1)*

B1: XBP-1s: vector encoding only the spliced form of murine XBP-1, a protein of 371 aa (protein)
chain: MVVVAAAPSAATAAPKVLLLSGQPASGGRALPLMVPGPRAAGSEASGTPQARKRQRLTHLSPEEKALRRKLKNRVAAQTARDRKKARMSELEQQVVDLEEENHKLQLENQLLREKTHGLVVENQELRTRLGMDTLDPDEVPEVEAKGSGVRLVAGSAESAAGAGPVVTSPEHLPMDSDTVASSDSESDILLGILDKLDPVMFFKCPSPESASLEELPEVYPEGPSSLPASLSLSVGTSSAKLEAINELIRFDHVYTKPLVLEIPSETESQTNVVVKIEEAPLSSSEEDHPEFIVSVKKEPLEDDFIPELGISNLLSSSHCLRPPSCLLDAHSDCGYEGSPSPFSDMSSPLGTDHSWEDTFANELFPQLISV

Assays:
Format in all cases: cell-based
BiP and CHOP = experiment: UPR target gene expression in NIH3T3 and J558 myeloma cells (Northern blot); conditions: for induction of UPR target genes (BiP, CHOP), agent alone: MG-132 20 μM, Tm 10 μg/ml
Protocol: (A) BiP and CHOP induction was examined by northern blot analysis after treating NIH3T3 or J558 myeloma cells with either MG-132 (20 μM), Tm (10 μg/ml) or both. Cells were pretreated with MG-132 for 1 hr and then further treated with Tm for 4 hrs. Ethidium bromide staining of the gel is shown at the bottom. (B) Inhibition of caspase-12 processing by proteasome inhibitors. Processing of full-length caspase-12 was examined by Western blotting in J558 myeloma cells treated with thapsigargin (1 μM) or PIs (20 μM) during the indicated time periods. (C) Alteration in the ratio of XBP-1 protein species in J558 cells were treated with increasing amounts of MG-132 for 16 hrs. Cells undergoing apoptosis were counted by Annexin V staining. (D) Time course of the XBP-1s to XBP-1u shift. Cells were treated with MG-132 (1 μM) for the indicated times and XBP-1u and spliced protein levels and cell death determined. (E) Alteration in the ratio of XBP-1 species in the MM.1s human myeloma line. Cells were treated with PS-341 (8 nM) in a time course analysis and XBP-1 protein species quantified.
Total RNA was prepared by using Trizol reagent, electrophoresed on 1.2% agarose, 6% formaldehyde gels and then transferred onto Genescreen Plus membrane, (NEN, Boston, Mass.). […] Probes for ERdj4 and p58^IPK were generated from cDNA excised from EST clones (ATCC, Manassas, Va.) using appropriate restriction enzymes (ERdj4, IMAGE: 1920927; p58^IPK, IMAGE:2646147).
The maturation and folding of ER membrane and secretory proteins relies on the activity of ER-resident chaperones and folding enzymes. ER proteins that ultimately fail to fold properly are degraded by the 26S proteasome, or ERAD. […] To test the effect of proteasome dysfunction on UPR activation, NIH3T3 fibroblasts (left panel) and J558 myeloma cells (right panel) were treated with the proteasome inhibitor (PI) MG-132 in the presence or absence of the ER stress inducer, tunicamycin (Tm), and the expression of UPR target genes assessed (FIG. 10a).

PERK = PERK autophosphorylation in J558 cells
ERdj4 promoter = experiment: ERdj4GL3 promoter luciferase reporter in MEF cells; conditions: wt MEF, Tm 1 μg/ml 16 hours or cotransfected XBP-1s
Protocol: (A) Wild type and XBP-1^−/− MEF cells were treated with 10 μg/ml Tm for the indicated time periods. Total RNAs were isolated and subjected to Northern blot analysis. The same blot was hybridized sequentially with BiP, CHOP, ERdj4, p58^ipk, ATF6α and Gla probes. The p58^ipk probe is probe A, from the 5′ end of the gene. Ethidium bromide staining of the gel before blotting is shown at the bottom for loading control. (B) All isoforms of p58^ipk are XBP-1 dependent. Here, Northern blot analysis was performed with probe B which recognizes sequences at the 3′ end of the gene. (C) XBP-1-dependent genes are also IRE1α-dependent. Northern blot analysis of RNA prepared from IRE 1α^−/− MEFs treated with Tm for varying time periods and assessed for expression of ERdj4 and p58^ipk. (D) The ERdj4GL3 reporter was transfected with or without XBP-1s plasmid into wild type and XBP-1^−/− MEF cells. Cells were treated with Tm at 1 μg/ml for 16 hours before harvesting as indicated. Luciferase activity was normalized to the Renilla activity. (E) Induction of BiP, ERdj4 and p58^ipk in primary B cells by LPS. B220+ primary B cells were isolated from spleens of wildtype or XBP-1^−/− RAG2^−/− lymphoid chimeras. Cells were untreated or stimulated for three days with 20 μg/ml LPS. Expression of BiP, ERdj4 and p58^ipk was determined by Northern blot analysis […]

| Molecule | induction of UPR target genes (BiP, CHOP), agent alone (BiP and CHOP) | effect on Tm-induced stress response (BiP and CHOP; MG-132 pretreatment 1 hr, then Tm 4 hrs, NIH3T3 and J558) | effect on Tm-induced autophosphorylation of PERK (PERK) | amount of phosphorylated PERK (PERK) | ERdj4 promoter luciferase reporter induction (ERdj4 promoter) |
| --- | --- | --- | --- | --- | --- |
| CC(C)C[C@@H](C=O)NC(=O)[C@H](CC(C)C)NC(=O)[C@H](CC(C)C)NC(=O)OCc1ccccc1 [MG-132] (Cbz-Leu-Leu-Leu-aldehyde) | also induced the UPR | blocked rather than further augmented the Tm-induced stress response | a decrease in the autophosphorylation of PERK; also recorded: very marked decrease in the autophosphorylation of PERK |  |  |
| tunicamycin [Tm] | induction of expression of representative UPR target genes such as BiP (Grp78) and CHOP |  |  | led to an increase in the amount of phosphorylated PERK | induced by Tm as well as by cotransfected XBP-1s |
| B1 |  |  |  |  | induced by Tm as well as by cotransfected XBP-1s |
